From patent publication US11020392B2, “Use of trimetazidine as a hepatoprotective medicine in prevention and treatment of liver diseases and conditions” (Martin Pharmaceuticals, Inc., priority 2015, dated 2021)

Experiments:
[1] = system: liver of liver failure patients; experiment: PET-CT imaging of liver FDG uptake before and after treatment; type: in vivo, human; conditions: liver failure patient(s), after vs before treatment; FIG. 4
Source text: Intriguingly, we were able to compare the PET-CT images before and after liver failure recovery in two participants who underwent PET-CT imaging due to suspicious liver lesions by magnet renascence imaging.

liver failure patients [2] = experiment: Large-scale randomized clinical trial, 165 liver failure patients (control, LOLA, TMZ+LOLA)
Source text: We recruited totally 298 patients with liver failure according to the American and European criteria.

SD rats = experiment: Hyperammonemia rat model (oral ammonium chloride, 30 days); type: in vivo; conditions: OA (LOLA) 0.8 g/kg, TMZ 0.002 g/kg orally, or both; FIG. 8
Source text: All five groups of rats were sacrificed after 30 days with pentobarbital anesthesia. Cardiac blood samples were collected to test blood levels of ammonia, ALT and AST. Liver biopsy specimens were collected and subject to hematoxylin-eosin (HE) staining and TUNEL staining to assess pathology.

[3] = system: patients with liver failure / serious hepatitis; experiment: Clinical cases: individual patients given oral TMZ on top of combined treatment; type: in vivo, human
Source text: Case 1: The patient had past positive HBsAg for over 20 years, during which they took multiple reexaminations of liver function and, as the results of all color ultrasound examinations were within normal range, they were not given any special treatment. Three months before, after catching cold and overwork, they developed abdominal distension and yellow urine, and was admitted to hospital following aggravation of the condition over 6 days. On admission, they were complicated with massive seroperitoneum and serious xanthochromia throughout the skin and mucosa of their whole body, feeling serious nausea, anorexia and feebleness.
Case 2: had had yellow urine for 25 days and dry mouth and bitter taste in mouth for 10 days before they came to the First Affiliated Hospital of Zhengzhou University. […] If they had been treated with the original approach, it would probably have taken two months before they could be discharged from hospital.
Case 3: had past positive HBsAg for 8 years, without regular treatment or periodic reexamination of relevant indicators. […] They took orally some “stomach medicine” (specific medicine not known) with poor effect. After the aforesaid symptoms aggravated for half a month, with urine turning as yellow as strong tea water, they were admitted to the First Affiliated Hospital of Zhengzhou University on Jan. 21, 2015. […] In merely 12 days, the patient achieved decrease of transaminase by dozens of times, relief from the critical condition, alleviated hepatocyte inflammatory responses and a favorable condition for liver cells, and greatly shortened length of hospitalization.
Case 4: […] They felt abdominal distension and nausea, accompanied with hydroncus in lower limbs, when they were tired half a month ago. For further treatment, they were admitted to the First Affiliated Hospital of Zhengzhou University on Jan. 13, 2015. Color ultrasound examination of abdomen detected diffuse changes of echo patterns of liver, cholecystolithiasis and cholecystitis. […] The patient's liver enzyme decreased to normal level after a short period, meeting the requirements for a surgical operation. Following the operation, their abdominal pain disappeared, with liver enzyme back to normal level and improved appetite. Their quality of life improves now without any discomfort.
Case 5: had past positive HBsAg for over 10 years, with HBsAg (+), HBeAg (+) and HBcAb (+), and had atrial fibrillation over 5 years, during which they orally took traditional Chinese medicine intermittently, but without regular treatment. They complained of feebleness, nausea, dry mouth and bitter taste, and anorexia for 6 days, and was hospitalized on Jan. 31, 2015. After admission, they had ALT 1881 u/L, AST 699 u/L, and prothrombin time activity (PTA) at 26%. The patient was extremely weak, in very poor spirits, with very poor appetite. A notice of critical illness diagnosis was given. […] The patient achieved a rapid decrease of transaminase and obvious improvement of liver synthesis function, and was safe from the critical condition. They continued to take the medicine till maturity of the treatment course, to improve the hepatocyte microcirculation and excretion of bilirubin. The patient soon recovered and left hospital.

Chang liver cells = type: cell-based; conditions: 10 mM NH4Cl; 1 mM LOLA, 1 mM TMZ, or 1 mM TMZ+1 mM LOLA; hypoxic (10% O2); FIG. 7
Protocol: Chang liver cells (American Type Culture Collection No. CCL-13) was cultured in RPMI1640 medium (Solarbio) containing 10% fetal bovine serum (Gibco), 100 u/mL penicillin and 100 μg/mL […], at 37° C. and under hypoxic conditions (10% O2, 5% CO2) and saturated humidity.

liver failure patients [4] = experiment: Clinical cohort study of trimetazidine in hepatic failure patients (ALT/AST decrease, TMZ vs DCA); type: in vivo, human; conditions: after 5 days of treatment, both groups also on basic treatment incl. LOLA, FIG. 2
Source text: The single-center cohort study was adopted as the clinical trial method.
In accordance with relevant references and the results of previous trials, the number of cases shall be no less than 50. Taking into account the number of loss to follow up and possible drop-out (to be controlled around 10%), 60 cases are required to be selected (30 cases for the trial group and 30 cases for the control group).
All serious hepatitis patients enrolled between Aug. 19, 2014 and […] were put in the control group; and all those enrolled between December 9 and the application date were in the trial group.
2. Exclusion Criteria • Patients under 18 or over 70 years old; • Patients diagnosed with shock liver (ischemic liver disease); • Patients with liver failure in pregnancy or HELLP syndrome; • Patients with liver failure secondary to malignant tumor in the liver; • Patients with refractory hypotension • Patients with septic shock; • Patients about to receive liver transplant (within 8 hours); • Patients allergic to trimetazidine drug; • Patients […] of trimetazidine drug; • Abuser of drugs and/or alcohol; • Pregnant or lactation women; • Patients with recent myocardial infarct (within half a year); • Patients with serious renal inadequacy.
2. Control group: Diisopropylamine Dichloroacetate (DCA) (80 mg/D) for the control group in this trial, provided by Dandong Yichuang Pharmaceutical Co., Ltd, for a 4-week course of treatment.
3. Both trial group and control group were also given basic treatment to meet ethical requirements. […] HBV-related liver failure patients were also treated with lamivudine.
1. Alanine aminotransferase (ALT), tested by chromatometry, with products provided by Roche Diagnostics (Shanghai) Ltd.
2. Aspartate transaminase (AST), tested by chromatometry, with products provided by Roche Diagnostics (Shanghai) Ltd.

| Compound | FDG uptake / hepatic glucose metabolism of liver (PET-CT) [1] | 30-day immortality rate (liver failure patients [2]; TMZ treatment group (TMZ+LOLA), TMZ 20 mg orally three times a day, 4 weeks, 44% with traditional therapeutic approach, FIG. 5) | 90-day immortality rate (liver failure patients [2]; TMZ treatment group (TMZ+LOLA), TMZ 20 mg orally three times a day, 4 weeks, 68% with traditional therapeutic approach, FIG. 5) [%] | serious adverse reaction during the clinical trial (liver failure patients [2]; liver failure patients, TMZ 20 mg three times a day) | integrity of mitochondrial structure in hepatocytes exposed to ammonia (electron microscope) (SD rats) | ALT ([3]; Case 1, HBsAg positive person, 12 days of TMZ one tablet three times a day plus combined treatment, ALT 270 u/L at admission) [u/L] | AST ([3]; Case 1, 12 days of TMZ, AST 303 u/L at admission) [u/L] | ALT ([3]; Case 2, serious drug-induced hepatitis, oral TMZ 20 days plus combined treatment, ALT 983 u/L at admission) [u/L] | total bilirubin ([3]; Case 2, oral TMZ 20 days, 401.9 umol/L at admission) [µmol/L] | AST ([3]; Case 2, oral TMZ 20 days, AST 484 u/L at admission) [u/L] | ALT ([3]; Case 3, acute-on-chronic liver failure, oral TMZ plus antiviral treatment, admitted Jan. 21, reexamined February 5 (12 days), ALT 1386 u/L at admission) [u/L] | AST ([3]; Case 3, reexamined February 5, AST 1368 u/L at admission) [u/L] | ALT ([3]; Case 4, HBsAg positive person, oral TMZ 13 days plus hepatoprotective and antiviral treatment, ALT 599 u/L before) [u/L] | AST ([3]; Case 4, oral TMZ 13 days, AST 663 u/L before) [u/L] | prothrombin time activity (PTA) ([3]; Case 5, one week of oral TMZ, 26% at admission) [%] | AST ([3]; Case 5, one week of oral TMZ, AST 699 u/L at admission) [u/L] | reduction of ammonia in hepatocytes (Chang liver cells) | ALT decrease (k, mathematical model) (liver failure patients [4]) | AST decrease (k, mathematical model) (liver failure patients [4]) |
| --- | --- | --- | --- | --- | --- | --- | --- | --- | --- | --- | --- | --- | --- | --- | --- | --- | --- | --- | --- |
| COc1ccc(CN2CCNCC2)c(OC)c1OC.Cl.Cl [TMZ, 1-[2,3,4-trimethoxybenzyl]piperazine dihydrochloride] | remarkably improved | approximately 18% | 35 | no serious adverse reaction occurred | nearly reversed the ammonia-induced mitochondria injury | 41 | 68 | 95 | 130 | 52 | 76 | 85 | 66 | 79 | 48 | 77 | greater effects compared to both LOLA treatment and TMZ+LOLA co-treatment | 259.4 | 362.53 |
| Diisopropylamine Dichloroacetate [DCA] | – | – | – | – | – | – | – | – | – | – | – | – | – | – | – | – | – | 67.325 | 142.77 |
